Source: PubChem BioAssay AID1996
In brackets after ≈: the same amount, converted by molar mass.

Details: buffer; pH 7.4; 200.0 µM

Row | Structure (SMILES) | solubility kinetic [µg/mL]
1 | Cc1snc(SCc2ccc(Cl)cc2)c1C#N | < 0.3
2 | CN(C)C(=O)O/N=C(\N)COc1ccc(C(C)(C)C)cc1 | 36 (≈ 123 µM)
3 | O=C(NCCOc1ccc(Cl)cc1)c1ccc2ccccc2n1 | 4 (≈ 12.2 µM)
4 | Cc1noc(C)c1CSc1ccccc1C(=O)O | > 39.5
5 | CCOc1cc(C(N)=O)cc(Cl)c1OCC | 34.6 (≈ 142 µM)
6 | CCOc1ccccc1NC(=O)c1ccc([N+](=O)[O-])cc1 | 2.7 (≈ 9.43 µM)
7 | CCOc1ccc(Cc2onc3c2C(=O)CCC3)cc1OCC | 45.4 (≈ 144 µM)
8 | COC(=O)CNC(=O)COC(=O)c1cc(SC)ccc1Cl | > 49.8
9 | CC(C)(C)c1ccc(C(=O)NC(=S)N2CCCCCC2)cc1 | 10.1 (≈ 31.7 µM)
10 | CCCc1c(C)nc(N2CCN(c3ccc(F)cc3)CC2)[nH]c1=O | 1.2 (≈ 3.63 µM)
11 | Cc1ccc(Nc2nc(C(=O)NCC3CCCO3)cs2)cc1 (stereo not given) | 9 (≈ 28.4 µM)
12 | Oc1ccc(Cl)cc1C=Nc1ccc2c3c(cccc13)CC2 | > 46.2
13 | CC1CC(C)(C)NC(=S)N1CCCC(=O)Nc1ccc(F)cc1 (stereo not given) | 42.8 (≈ 127 µM)
14 | CC1(C)C2CCC1(C)C(OC(=O)CNc1ccccc1)C2 (stereo not given) | 4.2 (≈ 14.6 µM)
15 | O=C(O)CNS(=O)(=O)c1cccc(Cl)c1 | > 37.5
16 | Cc1nn(C(=O)N(C)C)c(C)c1CN1C(=O)c2ccccc2C1=O | > 49
17 | COc1cc(SC)ccc1C(=O)NCCN1CCOCC1 | > 46.6
18 | Nc1ccc2nc(-c3ccccc3)cnc2c1 | 26.6 (≈ 120 µM)
19 | C=CCn1c(O)c(N=O)c2ccccc21 | > 30.3
20 | COc1ccccc1CN(C)C(=O)CSCC(=O)Nc1ccccc1F | > 56.5

Row | Structure (SMILES) | solubility kinetic [µg/mL]
21 | c1ccc(C(NCCNC(c2ccccc2)c2ccccc2)c2ccccc2)cc1 | 1.7 (≈ 4.33 µM)
22 | CNc1ccc(C(=O)OCC(=O)NC(=O)NC2CCCCC2)cc1[N+](=O)[O-] | 1.7 (≈ 4.49 µM)
23 | Cc1cc(CNC(=O)c2ccc(C)c([N+](=O)[O-])c2)c2ccccc2n1 | 20.1 (≈ 59.9 µM)
24 | Cc1ccc(S(=O)(=O)Nc2c(C)nn(C)c2C)cc1C | > 44
25 | COC(=O)c1ccc(CNC(=O)c2coc3ccccc3c2=O)cc1 | 3.7 (≈ 11 µM)
26 | CC(C)(C)CC(=O)Nc1cc2c3c(c1)CCC(=O)N3CCC2 | 43.2 (≈ 144 µM)
27 | COc1ccc(Cl)cc1C(=O)NCCCn1ccnc1 | > 44.1
28 | O=C1CN=C(c2ccccc2)c2c(sc3c2CCCC3)N1 | 36.3 (≈ 122 µM)
29 | COc1ccc(C(=O)NCc2ccc3c(c2)OCO3)c(OC)c1 | > 47.3
30 | O=C1CSC(=S)N1c1ccc(Cl)c(Cl)c1 | < 0.6
31 | Cc1ccc(CC(=O)Nc2ccc(S(=O)(=O)N3CCOCC3)cc2)cc1 | 7.5 (≈ 20 µM)
32 | COc1ccc(NC(=O)COC(=O)CCC2CCCC2)c(OC)c1 | 17.4 (≈ 51.9 µM)
33 | CCC(C(=O)NCCc1ccc(S(N)(=O)=O)cc1)c1ccccc1 (stereo not given) | > 52
34 | CC(NC(=O)c1ccccc1)C(=O)NC1CCCc2ccccc21 (stereo not given) | 14.7 (≈ 45.6 µM)
35 | Cc1ccc2cc(C#N)c(N3CCN(C(=O)c4ccccc4)CC3)nc2c1 | 4.1 (≈ 11.5 µM)
36 | COc1cc(CN2CCC(Cc3ccccc3)CC2)c([N+](=O)[O-])cc1OC | 33.5 (≈ 90.4 µM)
37 | C=CCNC(=O)CN1CCC(c2nc3ccccc3[nH]2)CC1 | > 44.8
38 | CCCCC(CC)C(=O)N1CCN(C(=O)c2ccco2)CC1 (stereo not given) | 45.4 (≈ 148 µM)
39 | COC(=O)c1ccc(COC(=O)C2CCN(S(=O)(=O)c3ccccc3C(=O)OC)CC2)cc1 | 11 (≈ 23.1 µM)
40 | CC(=O)Nc1ccc(SCC(=O)Nc2sccc2C#N)cc1 | 26.5 (≈ 80 µM)

Row | Structure (SMILES) | solubility kinetic [µg/mL]
41 | COC(=O)c1nc2ccc(N3CCOCC3)cc2c(C)c1C(=O)OC | > 51.7
42 | CCOC(=O)c1ccc(CN2C(=O)c3ccccc3S2(=O)=O)cc1 | 0.9 (≈ 2.61 µM)
43 | CCN(CC)S(=O)(=O)c1cccc(-c2csc(C)n2)c1 | 37.8 (≈ 122 µM)
44 | CCN(C(=O)CSc1ncccc1C(=O)O)C1CCCCC1 | > 48.4
45 | COC(=O)Cc1c(C)nc(SCc2ccccc2)[nH]c1=O | 16.4 (≈ 53.9 µM)
46 | O=[N+]([O-])c1ccc(-c2cn3c(n2)CCC3)cc1 | 25.5 (≈ 111 µM)
47 | O=C(CCc1nc2ccccc2c(=O)[nH]1)N1CCN(c2ccccc2Cl)CC1 | 3.2 (≈ 8.06 µM)
48 | CN(CCc1ccccc1)c1ccc([N+](=O)[O-])cn1 | 9.6 (≈ 37.3 µM)
49 | Fc1ccc(CNc2nc(-c3cccnc3)nc3ccccc23)cc1 | 5.6 (≈ 17 µM)
50 | O=C(Nc1cccc2ncccc12)c1ccc(OCc2ccccc2)cc1 | < 0.4
51 | Cn1ccnc1CC(O)(c1ccccc1)c1ccccc1 | 20.4 (≈ 73.3 µM)
52 | CCOC(=O)COc1nc(C)cc(C(F)(F)F)c1C#N | 36 (≈ 125 µM)
53 | CCOC(=O)N1CCc2c(sc3ncn(C)c(=O)c23)C1 | 36.7 (≈ 125 µM)
54 | Cc1c(C)n(C)c2ccc(C(=O)NCCCN3CCCC3)cc12 | > 47
55 | CCCCc1cc(C)c(S(=O)(=O)c2ccccc2C)c(=O)[nH]1 | 3.8 (≈ 11.9 µM)
56 | O=C(/C=C/c1ccccc1[N+](=O)[O-])OCC(=O)N1CCCC1 | > 45.6
57 | Cc1sc2nc(CSC(C)C(=O)N3CCOCC3)[nH]c(=O)c2c1C (stereo not given) | > 55.1
58 | CCn1cc(S(=O)(=O)Nc2cccnc2)cn1 | > 37.8
59 | O=C(C1CCCCC1)N1CC(=O)N2CCc3ccccc3C2C1 (stereo not given) | > 46.9
60 | O=C(O)CCc1[nH]c2ccccc2c1Sc1ccccc1 | > 44.6
